PubChem BioAssay (NCI)
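48-hour exposure; five concentrations; linearly interpolated endpoints. TGI denotes the concentration required for complete inhibition of growth.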 Where a SMILES comes first, the peptide text is derived from it. [ ]: non-standard residue; d: D form. The star is where a group is joined. Cbz = O=C(OCc1ccccc1)*; Boc = CC(C)(C)OC(=O)*; Aib = CC(C)(N)C(=O)O; OBn = c1ccc(CO*)cc1; OtBu = CC(C)(C)O*; βAla = NCCC(=O)O

Tests used:
Assay in all cases: NCI-60 cell line screen, 48 h
[1] = system: MOLT-4 leukemia
[2] = system: SN12C renal
[3] = system: OVCAR-4 ovarian
[4] = system: HOP-92 NSCLC
[5] = system: SW-620 colon
[6] = system: KM12 colon
[7] = system: K-562 leukemia
[8] = system: M14 melanoma
[9] = system: UACC-62 melanoma
[10] = system: NCI-H522 lung

Structure (SMILES) | TGI [1] | TGI [2] | TGI [3] | TGI [4] | TGI [5] | TGI [6] | TGI [7] | TGI [8] | TGI [9] | TGI [10]
CSc1ncc2c(n1)-c1ccccc1OC2N1CCCC1 (stereo not given) | > 100 µM | > 100 µM | > 100 µM | > 100 µM | > 100 µM | > 100 µM | > 100 µM | > 100 µM | > 100 µM | > 100 µM
Cc1ccc(S(=O)(=O)N2CCN(CCN(C)CCN3CCN(S(=O)(=O)c4ccc(C)cc4)CC3)CC2)cc1 | 36 µM | 37.6 µM | 43.7 µM | 35.6 µM | 31.7 µM | 31.6 µM | 35.2 µM | 31.2 µM | 32.8 µM | 38.9 µM
CCOC(=O)c1c(N2CCOCC2)[nH]c(=O)c(C(c2ccc(OC)cc2)c2c(O)c(C(=O)OCC)c(N3CCOCC3)[nH]c2=O)c1O | > 100 µM | > 100 µM | > 100 µM | > 100 µM | > 100 µM | > 100 µM | > 100 µM | > 100 µM | > 100 µM | > 100 µM
CCOC(=O)c1sc2c(c1OC(=O)c1ccccc1)c(=O)n(-c1ccccc1)c(=S)n2-c1ccccc1 | > 100 µM | > 100 µM | 32 µM | 79.2 µM | > 100 µM | > 100 µM | > 100 µM | 45.2 µM | 52.3 µM | 56.3 µM
COc1cc(/C=C2/SC(c3ccccc3)N(c3cccc([N+](=O)[O-])c3)C2=O)cc(OC)c1OC (stereo not given) | > 100 µM | > 100 µM | > 100 µM | > 100 µM | > 100 µM | > 100 µM | > 100 µM | > 100 µM | > 100 µM | > 100 µM
CC(C)(C)OC(=O)CC(NC(=O)OC(C)(C)C)C(=O)NC(CCCCNC(=O)OCc1ccccc1)C(=O)NC(C)(C)C(=O)NCCC(=O)OCc1ccccc1 (stereo not given) (Boc-D(OtBu)K(Cbz)[Aib][βAla]-OBn; configuration not given here) | > 100 µM | > 100 µM | > 100 µM | > 100 µM | > 100 µM | > 100 µM | > 100 µM | > 100 µM | > 100 µM | > 100 µM
NC(=O)CC(Nc1ncc2c(n1)-c1ccccc1OC2)C(=O)O (stereo not given) | > 100 µM | > 100 µM | > 100 µM | > 100 µM | > 100 µM | > 100 µM | > 100 µM | > 100 µM | > 100 µM | > 100 µM
CCCCSc1n/c(=C\c2ccc(N(C)C)cc2)c2nnnn12 | > 100 µM | > 100 µM | > 100 µM | > 100 µM | > 100 µM | > 100 µM | > 100 µM | > 100 µM | > 100 µM | > 100 µM
CCOC(=O)C(C(=O)Cc1ccccc1)c1ccccc1 (stereo not given) | > 100 µM | > 100 µM | > 100 µM | > 100 µM | > 100 µM | > 100 µM | > 100 µM | > 100 µM | > 100 µM | > 100 µM
COC(=O)C(COC(=O)/C=C/c1ccc(OC(C)=O)c(OC(C)=O)c1)OC(=O)/C=C/c1ccc(OC(C)=O)c(OC(C)=O)c1 (stereo not given) | 7.2 µM | 27.8 µM | 35.1 µM | 47.6 µM | 23.5 µM | 30.8 µM | 31.2 µM | 20.6 µM | 30.9 µM | 26.7 µM
O=C(/C=C/c1ccc([N+](=O)[O-])cc1)c1nc2ccccc2[nH]1 | 99.7 µM | > 100 µM | > 100 µM | > 100 µM | > 100 µM | > 100 µM | > 61.5 µM | > 100 µM | 63 µM | > 100 µM
CC1(C)[C@@H]2C[C@H]1c1cnc(-c3ccccn3)cc1C2[C@@H]1c2cc(-c3ccccn3)ncc2[C@@H]2C[C@H]1C2(C)C (stereo not given in full) | > 100 µM | > 100 µM | 85.3 µM | > 100 µM | > 100 µM | > 100 µM | > 100 µM | > 100 µM | > 100 µM | > 100 µM
N#CCCN(CCCN(C(=O)Nc1ccccc1)c1ccccc1)C(=O)Nc1ccccc1 | > 100 µM | > 100 µM | > 100 µM | > 100 µM | > 100 µM | > 100 µM | > 100 µM | > 100 µM | > 100 µM | > 100 µM
CSCCC(NC(=O)OC(C)(C)C)C(=O)NCCNc1ccc(NCCNC(=O)C(CCSC)NC(=O)OC(C)(C)C)c2c1C(=O)c1ccccc1C2=O (stereo not given) | 11.5 µM | 21 µM | 24.8 µM | 10.1 µM | 7.3 µM | > 63.6 µM | > 32.7 µM | 14.1 µM | 14.4 µM | 3.38 µM
COc1ccc(-c2c(C#N)c(-c3ccccc3)n(NS(=O)(=O)c3ccccc3)c(=O)c2C#N)cc1 | 91.2 µM | > 100 µM | > 100 µM | > 100 µM | > 100 µM | > 100 µM | > 100 µM | > 100 µM | > 100 µM | 73.7 µM
O=C1[C@@H]2Cc3c([nH]c4ccccc34)C(C3CCCCC3)N2C(=O)[C@@H]2CCCN12 (stereo not given in full) | 57 µM | 63.4 µM | > 100 µM | 76.6 µM | > 100 µM | 58.4 µM | > 100 µM | > 100 µM | 49 µM | 63.1 µM
CC(C)(C)OC(=O)N1C(OP(=O)(Oc2ccccc2)Oc2ccccc2)=COc2cccnc21 | 43.3 µM | > 100 µM | > 100 µM | 92.5 µM | > 100 µM | > 100 µM | > 100 µM | > 100 µM | > 100 µM | > 100 µM
CCOC(=O)C1=C(C)NC(=S)NC1c1cccc(O)c1 (stereo not given) | > 100 µM | > 95.3 µM | > 100 µM | > 84.3 µM | > 100 µM | > 100 µM | > 100 µM | 60.5 µM | > 96.6 µM | 93.9 µM
